The results in this text go back to patent US20200345662A1, “MUSCULAR ATROPHY-INDUCING AGENT USING HYPOMETABOLISM-INDUCING SUBSTANCE T1AM, AND USE THEREOF IN TREATING MUSCULAR HYPERTROPHY” (UNIVERSITY INDUSTRY FOUNDATION, YONSEI […] CAMPUS, priority 2015, published 2020).

Experiment [1] deals with MuRF1. The experiment can be described thus: Immunoblotting analysis of MuRF1 in C2C12 myotubes. The class given is cell-based. To be noted: T1AM-treated group vs control. The protocol: (§1) C2C12 myoblasts were purchased from American Type Culture Collection (Rockville, Md., USA) and cultured in a DMEM medium containing 4,500 mg/L glucose supplemented with 10% fetal bovine serum (Hyclone, Logan, Utah, USA) and 1% antibiotics/antimycotics Gibco, Burlington, Ontario, Canada). The myoblasts were stored under conditions of 37° C. and 5% CO2. The myoblasts were grown on a 6-well culture plate for immunoblot analysis and measurement of diameters of myotubes. The myoblasts were maintained in each well for 5 days by replacing the medium with a differentiation medium (DMEM containing 2% horse serum and 1% antibiotics/antimycotics) at about 80% confluent state and induced to be differentiated into myotubes. The medium was replaced with a new medium every two days.
(§2) The cells were obtained with a RIPA buffer, degraded by repeated suction through a 21 gauge needle, and the transferred to a 1.5 mL microtube. A sample was cultured on ice for 5 minutes and centrifuged at 13,000 rpm at 4° C. for 10 minutes. A supernatant was obtained with whole-cell soluble lysates and the protein concentration was determined through Bradford assay. […]
(§3) The proteins were electrophoretically transferred from the gel to a nitrocellulose membrane. […] An immunocomplex was detected by the ECL system (GE Healthcare, Fairfield, Conn., USA) and the obtained bands were quantified by ImageJ 1.47t software (NIH, MD, USA). […]

Experiment [2] relates to MAFbx. The experiment can be described thus: Immunoblotting analysis of MAFbx in C2C12 myotubes. The class given is cell-based. The following applies: T1AM treatment vs control. Here is the method:
as §1, §2, §3

Experiment [3] deals with FoxO3. The experiment can be described thus: Immunoblotting analysis of p-FoxO3 and FoxO3 in C2C12 myotubes. It is filed as cell-based. To be noted: T1AM-treated group vs control. Here is the method: as §1
(§4) The cells were obtained with a RIPA buffer, degraded by repeated suction through a 21 gauge needle, and the transferred to a 1.5 mL microtube. A sample was cultured on ice for 5 minutes and centrifuged at 13,000 rpm at 4° C. for 10 minutes. A supernatant was obtained with whole-cell soluble lysates and the protein concentration was determined through Bradford assay. To detect AMPK, phospho-AMPK (p-AMPK), FoxO1, p-FoxO1, FoxO3, p-FoxO3, Akt1, p-Akt1, S6K, p-S6K, MuRF1, MAFbx, HSP90, HSP72, HSP60, HSP27, αB-crystallin, and GAPDH, a total of 30 μg of proteins was electrophoresed on 8 to 10% SDS-PAGE.
(§5) The proteins were electrophoretically transferred from the gel to a nitrocellulose membrane. The membrane reacted with a blocking buffer (1X TBS, 0.5% Tween-20 with 5% w/v nonfat dry milk) for 1 hour at room temperature and then washed with 10 mL TBST three times every 10 minutes. […] An immunocomplex was detected by the ECL system (GE Healthcare, Fairfield, Conn., USA) and the obtained bands were quantified by ImageJ 1.47t software (NIH, MD, USA). […]
(§6) The cells on each 6-well plate were washed three times with 1× PBS and fixed with 4% paraformaldehyde for 30 minutes at room temperature. […] Fluorescent-labeled cells were detected with a Carl Zeiss LSM750 confocal microscope (Jena, Germany).
In general terms: Immunoblotting shows a protein as a band on a membrane.

The subject of experiment [4] is C2C12 myotubes. In words: Measurement of diameter (size) of C2C12 myotubes. It is filed as cell-based. To be noted: 75 μM of T1AM for 6 hours. The protocol: as §1
To verify the effect of T1AM on the size of C2C12 myotubes, the cells were fixed with 4% paraformaldehyde and photographed at 200× magnification on an Axiovert 200 optical microscope. For analysis, the cells were divided into 9 fractions in order to randomly select the cells. The diameter of each myotube was measured using Image J software (NIH, Frederick, Md., USA).
To determine whether T1AM induced muscular atrophy in C2C12 myotubes, cells were photographed under a phase contrast microscope (FIG. 1A) and the diameter was measured at 200× magnification (FIG. 1B).

Experiment [5] relates to αB-crystallin. In words: Immunoblotting analysis of αB-crystallin in C2C12 myotubes. The class given is cell-based. To be noted: T1AM-treated group vs control. Here is the method: as §1, §2, §3
Experiment [6] has as its system heat shock protein 72 (HSP72). The experiment can be described thus: Immunoblotting analysis of HSP72 in C2C12 myotubes. It is filed as cell-based. To be noted: T1AM-treated group vs control. Here is the method: as §1, §2, §3
The test system of experiment [7] is HSP60. The experiment can be described thus: Immunoblotting analysis of HSP60 in C2C12 myotubes. It is filed as cell-based. The following applies: T1AM-treated group vs control. The protocol: as §1, §2, §3
Experiment [8] deals with AMPK. In words: Immunoblotting analysis of p-AMPK and AMPK in C2C12 myotubes. The class given is cell-based. To be noted: T1AM-treated group vs control. Here is the method:
as §1, §4
(§7) The proteins were electrophoretically transferred from the gel to a nitrocellulose membrane. The membrane reacted with a blocking buffer (1X TBS, 0.5% Tween-20 with 5% w/v nonfat dry milk) for 1 hour at room temperature and then washed with 10 mL TBST three times every 10 minutes. Thereafter, the membranes reacted with a primary antibody diluted appropriately with 10 mL TBST (1:500 to 1:10,000) overnight at 4° C. […] An immunocomplex was detected by the ECL system (GE Healthcare, Fairfield, Conn., USA) and the obtained bands were quantified by ImageJ 1.47t software (NIH, MD, USA). […]

The test system of experiment [9] is Akt1. In words: Immunoblotting analysis of p-Akt1 and Akt1 in C2C12 myotubes. It is filed as cell-based. To be noted: T1AM-treated group vs control. Here is the method:
as §1, §4, §7

Experiment [10] relates to S6K. The experiment can be described thus: Immunoblotting analysis of p-S6K and S6K in C2C12 myotubes. The class given is cell-based. Here is the method: as §1, §2, §3
Experiment [11] has as its system FoxO1. The experiment can be described thus: Immunoblotting analysis of p-FoxO1 and FoxO1 in C2C12 myotubes. It is filed as cell-based. To be noted: T1AM-treated group vs control. Here is the method:
as §1, §4, §5, §6

The test system of experiment [12] is 26S proteasome. The experiment can be described thus: Chymotrypsin-like activity of 26S proteasome, cell-based luminescence assay. The following applies: C2C12 myotubes, T1AM-treated group vs control. The protocol: Two groups of myotubes were trypsinized and then washed with a fresh differentiation medium. Among three determinants of proteasome activities (trypsin-, chemotrypsin- and caspase-like activities), the chemotrypsin-like activity is regarded as representative of the protease capacity of the proteasome. The chemotrypsin-like activity was determined according to the manufacturer's protocol using a Promega Proteasome-Glo cell-based luminescence assay kit (Promega, Madison, Wis., USA) by approximately 7,500 cells measured by a cell counter (Biorad, Hercules, Calif., USA) in 50 μl of the differentiation medium. To confirm the specificity of the analysis, a partial sample containing the same number of cells was pretreated with a proteasome inhibitor, epoxomicin, at a concentration of 10 μM for 30 minutes. The chemotrypsin-like activity was measured by the same process and the result was used as a background signal for analysis. The luminescence was measured with a GloMax 20/20 Luminometer (Promega).

On to `NCCc1ccc(Oc2ccc(O)cc2)c(I)c1` [T1AM, 3-iodothyronamine], for which the “expression of MuRF1, higher than control” value in experiment [1] stood at 1.8 times. The “expression of MAFbx” value in [2] is given as “not affected”. In [3], the “expression ratio of p-FoxO3/FoxO3, lower than control” value is given as 0.39 times; the “p-FoxO3 level, lowered” value was 0.58 times; the “total expression of FoxO3 between T1AM-treated group and control” value is “not different”. For the same compound, the “size of myotube, decrease compared to vehicle control” value in experiment [4] amounted to 0.13 times. For the same compound, the “expression level of αB-crystallin, down-regulated compared to the control” value in [5] was 0.63 times. Besides, the “expression level of HSP72, down-regulated compared to the control” value in experiment [6] stood at 0.89 times. For the same compound, the “difference in HSP60 expression between the two groups” value in experiment [7] is “not statistically significant”. For the same compound, in experiment [8], the “AMPK phosphorylation, increase compared to the control” value came to 2.7 times; the “expression ratio of p-AMPK/AMPK, higher than control” value amounted to 2.0 times; the “total expression levels of AMPK, between the two groups” value is listed as “similar”. Besides, in [9], the “expression ratio of p-Akt1/Akt1, lower than control” value is listed as 0.45 times; the “non-phosphorylation level of Akt1 between the two groups” value was “similar”; the “phosphorylation level of Akt1 compared to the control” value is on record as “significantly down-regulated”. The p-S6K level result in [10] (T1AM treatment vs control) is reported as “lowered”. For the same compound, the “expression ratio of p-S6K/S6K, lower than control” value in experiment [10] (T1AM-treated group vs control) turned out to be 0.53 times. In addition, in experiment [11], the “expression ratio of p-FoxO1/FoxO1, lowered” value is on record as 0.66 times; the “phosphorylation level of FoxO1 between the two groups” value is on record as “similar”; the “total expression of FoxO1, higher than control” value turned out to be 2.5 times. Further, the “chymotrypsin-like activity of proteasome, higher than control” value in experiment [12] is given as 1.5 times.
